Values quoted from earlier work, collected in patent publication US10980792B2, “Formulations of Cabozantinib” (Zhuhai Beihai Biotech Co., Ltd., priority 2016, dated 2021).

protein bound in human plasma (human plasma): ≥ 99.7% | solubility in water: practically insoluble
SMILES: COc1cc2nccc(Oc3ccc(NC(=O)C4(C(=O)Nc5ccc(F)cc5)CC4)cc3)c2cc1OC [Cabozantinib, cabozantinib]
